Like-named read-outs stand apart in the source and are kept apart here.
How the values were obtained:
CHIKV = assay: Antiviral activity against CHIKV; format: cell-based; details: Chikungunya virus
in vitro [1] = assay: in vitro
EBOV (VP30, Huh) = assay: microbe, parasite or virus in culture; format: cell-based, Ebola Virus; details: for EC50: read-out: EC50, EBOV (VP30, Huh)
in vitro [2] = details: human
DENV2 = assay: Antiviral activity against DENV2; format: cell-based; details: Dengue Virus 2
DENV4 = assay: Antiviral activity against DENV4; format: cell-based; details: Dengue Virus 4
SARS-CoV-2 (Omicron) = assay: microbe, parasite or virus in culture; format: cell-based; details: Severe acute respiratory syndrome coronavirus 2, Calu-3, read-out: IC50, SARS-CoV-2 (Omicron) (Calu3) #1
[3] = Cytotoxicity (CC50) alongside DENV2 assay
SARS-CoV-2 (WA-1) [4] = assay: microbe, parasite or virus in culture; format: cell-based; details: Severe acute respiratory syndrome coronavirus 2, A549, read-out: IC50, SARS-CoV-2 (WA-1) #1
SARS-CoV-2 (WA-1) [5] = assay: microbe, parasite or virus in culture; format: cell-based; details: Severe acute respiratory syndrome coronavirus 2, A549, read-out: IC50, SARS-CoV-2 (WA-1) #2
[6] = Cytotoxicity (CC50) alongside SARS-CoV-2 WA-1 assay, lab #1; details: human, A549 cells
[7] = Cytotoxicity (CC50) alongside SARS-CoV-2 WA-1 assay, lab #2; details: human, A549 cells
SARS-CoV-2 (A549-hACE2) = assay: microbe, parasite or virus in culture; format: cell-based
VEEV = assay: microbe, parasite or virus in culture; format: cell-based; details: Venezuelan equine encephalitis virus, read-out: EC50, VEEV
OC43 = assay: Antiviral activity against OC43 (Huh 7.5 IFITM3); format: cell-based, human coronavirus; details: Betacoronavirus 1, OC43, Huh7.5
in vitro [8] = assay: in vitro; remark: listed apart in the source
[9] = Cytotoxicity (CC50) alongside DENV4 assay
[10] = Cytotoxicity (CC50) alongside SARS-CoV-2 (A549-hACE2) assay; details: human, A549-hACE2 cells
[11] = Zaire ebolavirus, Huh-7, read-out: IC50, EBOV (VP30, Huh)

| SMILES | IC50 (EBOV (VP30, Huh); [11]) [µM] | CC50 (in vitro [2]) [µM] | IC50 (DENV2) [µM] | IC50 (DENV4) [µM] | IC50 (SARS-CoV-2 (Omicron)) [µM] | EC50 (EBOV (VP30, Huh); Zaire ebolavirus) [µM] | IC50 (SARS-CoV-2 (WA-1) [5]) [µM] | other results |
| --- | --- | --- | --- | --- | --- | --- | --- | --- |
| CC(C)OC(=O)[C@H](C)N[P@](=O)(OC[C@H]1O[C@@H](n2cnc3sc4c(=O)[nH]cnc4c32)C(O)C1O)Oc1ccccc1 (stereo in doubt) [CEM-010] | – | – | – | – | – | – | – | IC50 (CHIKV): 82.5 µM; CC50 (in vitro [1]): > 100 µM |
| CC1(F)C(O)[C@@H](CO)O[C@H]1n1cnc2sc3c(N)nc(N)nc3c21 (stereo in doubt) [CEM-024, 2′-deoxy-2′-fluoro-2′-C-methyl-1′-[(5,7-diaminoimidazo-[4′,5′:4,5]thieno[3,2-d]pyrimidin-3-yl)]-β-D-ribofuranose] | 31 | 11 | – | – | – | – | – | – |
| Nc1nc(N)c2sc3ncn([C@@H]4O[C@H](CO)C(O)C4O)c3c2n1 (stereo partly drawn) [CEM-007, 1-[(5,7-diaminoimidazo-[4′,5′:4,5]thieno[3,2-d]pyrimidin-3-yl)]-β-D-ribofuranose-2,3,5-Triol] | 15.2 | > 100 | 45 | 64 | 56.4 | 40.5 | – | IC50 (EBOV (VP30, Huh); read-out: IC50, EBOV (VP30, Huh)): 11.7 µM |
| CC(C)OC(=O)[C@H](C)N[P@](=O)(OC[C@H]1O[C@@H](n2cnc3sc4c(N)ncnc4c32)C(O)C1O)Oc1ccccc1 (stereo partly shown) [CEM-012] | 49.3 | 17.7 | – | – | – | – | – | – |
| CC(C)OC(=O)[C@H](C)N[P@](=O)(OC[C@H]1O[C@@H](n2cnc3sc(C(N)=O)c(N)c32)C(O)C1O)Oc1ccccc1 (stereo partly shown) [CEM-015] | – | – | – | – | – | – | – | IC50 (CHIKV): 93.9 µM |
| Nc1nc2c(sc3ncn([C@@H]4O[C@H](CO)C(O)C4O)c32)c(=O)[nH]1 (stereo partly drawn) [CEM-021, 1-[(5-Aminoimidazo[4′,5′:4,5]thieno[3,2-d]pyrimidin-3-yl-7-one)]-β-D-ribofuranose 2,3,5-Triol] | 43.6 | 60.5 | 73.5 | 100 | – | – | – | CC50 [3]: > 100 µM |
| COc1nc(OC)c2sc3ncn([C@@H]4O[C@H](CO)C(O)C4O)c3c2n1 (stereo partly drawn) [CEM-028, 1-[(5,7-dimethoxyimidazo-[4′,5′:4,5]thieno[3,2-d]pyrimidin-3-yl)]-β-D-ribofuranose-2,3,5-Triol] | 48 | 138 | – | – | – | – | – | – |
| COc1nc(OC)c2sc3ncn([C@@H]4O[C@H](CO[P@@](=O)(N[C@@H](C)C(=O)OC(C)C)Oc5ccccc5)C(O)C4O)c3c2n1 (stereo partly shown) [CEM-036] | 37.7 | – | 24 | 34 | > 100 | – | 48.4 | IC50 (SARS-CoV-2 (WA-1) [4]): 21.6 µM; CC50 [3]: > 100 µM; CC50 [6]: > 100 µM; CC50 [7]: > 100 µM |
| CC(C)OC(=O)[C@H](C)N[P@@](=O)(Oc1ccccc1)OC1[C@@H](CO[P@@](=O)(N[C@@H](C)C(=O)OC(C)C)Oc2ccccc2)O[C@@H](n2cnc3sc4c(N)nc(N)nc4c32)C1(C)F (stereo partly shown) [CEM-042] | 11.6 | – | 3.5 | 7.5 | 7.36 | – | 5.89 | IC90 (DENV2): 6.8 µM; IC90 (DENV4): 25 µM; IC50 (SARS-CoV-2 (WA-1) [4]): 3.58 µM; EC50 (SARS-CoV-2 (A549-hACE2); Severe acute respiratory syndrome coronavirus 2, read-out: EC50, SARS-CoV-2 (A549-hACE2)): 5.89 µM; EC90 (SARS-CoV-2 (A549-hACE2); Severe acute respiratory syndrome coronavirus 2, read-out: EC90, SARS-CoV-2 (A549-hACE2)): 6.5 µM; EC50 (CHIKV): 24.6 µM; EC50 (VEEV): 86.7 µM; EC50 (OC43): 1.5 µM; CC50 (in vitro [1]): > 100 µM; CC50 (in vitro [8]): > 100 µM; CC50 [3]: > 100 µM; CC50 [9]: > 100 µM; CC50 [6]: > 100 µM; CC50 [7]: > 100 µM; CC50 [10]: > 100 µM |
| CCC(CC)COC(=O)[C@H](C)N[P@](=O)(OC[C@H]1O[C@@H](n2cnc3sc4c(N)nc(N)nc4c32)C(C)(F)C1O)Oc1ccccc1 (stereo partly shown) [CEM-052] | – | – | 19 | 16 | 20.6 | 9.1 | – | EC50 (EBOV (VP30, Huh)): 11.4 µM; CC50 [9]: 33 µM |
| CCC(CC)COC(=O)[C@H](C)N[P@@](=O)(Oc1ccccc1)OC1[C@@H](CO[P@@](=O)(N[C@@H](C)C(=O)OCC(CC)CC)Oc2ccccc2)O[C@@H](n2cnc3sc4c(N)nc(N)nc4c32)C1(C)F (stereo partly shown) [CEM-053] | – | – | 18 | 2.9 | 21.9 | 4.5 | 2.95 | EC50 (EBOV (VP30, Huh)): 6.7 µM; CC50 [9]: > 50 µM |
| CC(C)OC(=O)[C@H](C)N[P@](=O)(OC[C@H]1O[C@@H](n2cnc3sc4c(N)nc(N)nc4c32)C(C)(F)C1OC(=O)C(C)C)Oc1ccccc1 (stereo partly shown) [CEM-054] | – | – | 22 | 10 | 37.9 | 10.8 | – | EC50 (EBOV (VP30, Huh)): 11.2 µM; CC50 [9]: 32 µM |
| CCC(CC)COC(=O)[C@H](C)N[P@](=O)(OC[C@H]1O[C@@H](n2cnc3sc4c(N)nc(N)nc4c32)[C@](C)(F)C1OC(=O)C(C)C)Oc1ccccc1 (stereo partly shown) [CEM-055] | – | – | – | – | 19.6 | 6.2 | 11.9 | EC50 (EBOV (VP30, Huh)): 10.1 µM |
| CCC(CC)COC(=O)[C@H](C)N[P@](=O)(OC[C@H]1O[C@@H](n2cnc3sc4c(N)nc(N)nc4c32)C(O)C1O)Oc1ccccc1 (stereo partly shown) [CEM-056] | – | – | – | – | 59.3 | 22.1 | 44.7 | – |

From patent US20260184738A1 (priority 2023, published 2026)
